“Also recorded” adds a separate entry of the source.
Legend:
[1] = system: HCV genotype 1b subgenomic replicon in Huh-luc/neo-ET cells; assay: cHTS luciferase assay; format: cell-based, hepatitis C virus; settings: for effect on replicon replication (in words): single agent, 48 h luciferase
HMGCR = HMGCR protein expression by western blot; format: cell-based, human; settings: Huh-7 cells, 16 h
[2] = system: HCV replicon RNA in Huh-luc/neo-ET cells; assay: replicon RNA copy number by quantitative RT-PCR; format: cell-based, hepatitis C virus; settings: 72 h, normalized to total RNA
Huh-7 cells = assay: host proliferation counterscreen measuring cellular ATP levels; format: cell-based, human; settings: 48 h
[3] = ref Pyrah et al, 2001; Cenedella et al, 2004; cited from earlier work

| SMILES | effect on replicon replication (in words) [1] | effect on host cell ATP levels (in words) (Huh-7 cells) | further results |
| --- | --- | --- | --- |
| C=C(CC[C@]12O[C@H](C(=O)O)[C@@](O)(C(=O)O)[C@](C(=O)O)(O1)[C@H](OC(=O)/C=C/[C@@H](C)C[C@@H](C)CC)[C@H]2O)[C@@H](OC(C)=O)[C@H](C)Cc1ccccc1 [Squalestatin] | strongly promoted replicon replication |  | HMGCR protein expression (in words) (HMGCR): overexpression of HMGCR; replicon RNA copy number, RT-qPCR (in words) [2]: proviral effects |
| NCCCC(O)(P(=O)(O)O)P(=O)(O)O [Alendronate] |  | reduce host cell ATP levels |  |
| CC(C)CCC[C@@H](C)[C@H]1CC(=O)C2=C3CC[C@H]4C[C@@H](O)CC[C@]4(C)[C@H]3CC[C@@]21C [Colestolone] | inhibited HCV replication with marginal impact on host cell ATP levels |  |  |
| CCC(C)(C)C(=O)O[C@H]1C[C@@H](C)C=C2C=C[C@H](C)[C@H](CC[C@@H]3C[C@@H](O)CC(=O)O3)[C@H]21 [Simvastatin] | proviral effect; also recorded: increased HCV replication | correlate with a reduction in host cell ATP levels | HMGCR protein expression (in words) (HMGCR): apparent overexpression of HMGCR; replicon RNA copy number, RT-qPCR (in words) [2]: proviral effects |
| CC(C)N1CCN(c2ccc(OCC3COC(Cn4cncn4)(c4ccc(Cl)cc4Cl)O3)cc2)CC1 (stereo not shown) [Terconazole] |  | reduce host cell ATP levels |  |
| CC(C)=CCC/C(C)=C/CC/C(C)=C/CO [Farnesol] | strongly promoted replicon replication |  |  |
| COC(=O)[C@H](CC(C)C)NC(=O)c1ccc(NC[C@@H](N)CS)cc1-c1ccccc1 [GGTI-286] | antiviral activity |  |  |
| CC(Cc1ccc(C(C)(C)C)cc1)CN1C[C@@H](C)O[C@@H](C)C1 (stereo partly shown) [Fenpropimorph] | inhibited HCV replication with marginal impact on host cell ATP levels |  |  |
| CCN(CC)CCOc1ccc(C(=C(Cl)c2ccccc2)c2ccccc2)cc1 [Clomiphene] |  | reduce host cell ATP levels |  |
| CCOP(=O)(OCC)C(=Cc1cc(C(C)(C)C)c(O)c(C(C)(C)C)c1)P(=O)(OCC)OCC [SR-12813] | strongly promoted replicon replication |  |  |
| CC(C)n1c(/C=C/C(O)CC(O)CC(=O)O)c(-c2ccc(F)cc2)c2ccccc21 (stereo not shown) [fluvastatin] | proviral effect |  |  |
| CCCCCCCCCCCCCCOc1ccc(C(=O)O)o1 [TOFA] |  | modest depletion of ATP at most antiviral concentrations |  |
| CCN(CC)CCO[C@H]1CC[C@@]2(C)C(=CC[C@@H]3[C@@H]2CC[C@]2(C)C(=O)CC[C@@H]32)C1.Cl [U18666A] | inhibited HCV replication with marginal impact on host cell ATP levels |  | IC50 of HCV replication inhibition (in words) ([1]; 48 h): nM range; HMGCR protein expression (in words) (HMGCR): overexpression of HMGCR; side effects [3]: rapid induction of cataracts and irreversible lens damage in animals |
| CCC(C)(C)c1ccc(CC(C)CN2C[C@@H](C)O[C@@H](C)C2)cc1 (stereo partly shown) [Amorolfine] | inhibited HCV replication with marginal impact on host cell ATP levels |  |  |

— publication PMC2913396 (Molecular Systems Biology, 2010)
